Several values for one entry are separate records, joined by “and”; a condition that tells them apart may be missing. Identical values can stand only once.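 Five concentrations, 48 hours, 96-well plates. The concentration for 50% growth inhibition is given as GI50. TGI: concentration producing complete growth inhibition.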
Legend:
Test in all cases: NCI-60 cell line screen, 48 h
NCI-H460 lung = test system: NCI-H460 lung
SNB-19 CNS = test system: SNB-19 CNS
CCRF-CEM leukemia = test system: CCRF-CEM leukemia
HS 578T breast = test system: HS 578T breast
OVCAR-5 ovarian = test system: OVCAR-5 ovarian
HOP-92 NSCLC = test system: HOP-92 NSCLC
HCT-116 colon = test system: HCT-116 colon
DU-145 prostate = test system: DU-145 prostate
MCF7 breast = test system: MCF7 breast
SK-MEL-2 melanoma = test system: SK-MEL-2 melanoma

Row | SMILES | GI50 (NCI-H460 lung) [µM] | TGI (NCI-H460 lung) [µM] | GI50 (SNB-19 CNS) [µM] | TGI (SNB-19 CNS) [µM] | GI50 (CCRF-CEM leukemia) [µM] | TGI (CCRF-CEM leukemia) | GI50 (HS 578T breast) [µM] | TGI (HS 578T breast) [µM] | GI50 (OVCAR-5 ovarian) [µM] | TGI (OVCAR-5 ovarian) [µM] | GI50 (HOP-92 NSCLC) [µM] | TGI (HOP-92 NSCLC) [µM] | GI50 (HCT-116 colon) [µM] | TGI (HCT-116 colon) [µM] | GI50 (DU-145 prostate) [µM] | TGI (DU-145 prostate) | GI50 (MCF7 breast) [µM] | TGI (MCF7 breast) | GI50 (SK-MEL-2 melanoma) [µM] | TGI (SK-MEL-2 melanoma)
1 | N#Cc1c(N)nc(N2CCOCC2)c(C#N)c1-c1ccc(Cl)cc1Cl | 9.38 | 25.3 | 15.9 | 60.9 | 23.2 | 75 µM | 15.8 | 45.9 | 23.1 | 71.2 | 3.35 | 26.3 | 22.1 | 54.7 | 24.6 | 81 µM | 8.8 | 36.2 µM | 13.6 | 32.4 µM
2 | Cn1c(=O)c(Oc2ccc(F)cc2F)cc2cnc(NC3CCC(O)CC3)nc21 (centres undefined) | > 25 | > 25 | > 25 | > 25 | > 25 | > 25 µM | > 25 | > 25 | > 25 | > 25 | 0.779 | 19.3 | > 25 | > 25 | > 25 | > 25 µM | > 25 | > 25 µM | > 25 | > 25 µM
3 | COc1ccc(Cl)cc1Nc1nc(C(F)(F)F)ccc1C(=O)N/N=C/c1ccc(Cl)cc1 | 1.82 | > 100 | 6.42 | > 100 | 0.594 | 10.3 µM | 22.3 | > 100 | 6.48 | > 100 | 11.4 | 67.2 | 3.39 | 19.9 | 7.02 | > 100 µM | 1.05 | > 100 µM | 0.954 | > 100 µM
4 | CCNc1nc(-c2ccc(Cl)c(OC)c2)c(-c2ccnc(NCCNS(=O)(=O)c3ccc(Cl)cc3)n2)s1 | 3.2 | > 100 | 4.59 | > 100 | 2.83 | > 100 µM | 3.98 | 87.2 | 3.67 | > 100 | 2.64 | 9.58 | 2.65 | 6.25 | 3.94 | > 100 µM | 3.03 | > 100 µM | 2 | 4.41 µM
5 | CCC(=C(c1ccc(OCCN(CC)CC)cc1)c1ccc(OCCN(CC)CC)cc1)c1ccc(Cl)cc1 | 0.619 | 1.17 | 0.584 | 1.09 | 0.641 | 1.74 µM | 0.668 | 1.57 | 0.559 | 1.06 | 0.5 | 1.18 | 0.508 | 0.995 | 0.619 | 1.19 µM | 0.347 | 0.861 µM | 0.634 | 1.27 µM
6 | Brc1ccc2c(c1)-c1ccccc1C1=NCCN12 | 0.399 | 2.71 | 2.17 | 11.6 | 1.74 | 4.93 µM | 2.8 | 12 | 1.64 | 10.4 | 1.33 | 5.74 | 0.403 | 10.2 | 1.09 | 10.9 µM | 0.552 | 10.9 µM | 1.87 | 4.18 µM
7 | COc1cccc2c(Nc3ccc(C(=O)NCCN4CCNCC4)cc3)cc(-c3ccccc3)nc12 | 35.1 | > 100 | 53.1 | > 100 | 30.1 | 91.7 µM | 46.9 | > 100 | > 100 | > 100 | 95 | > 100 | 30.9 | > 100 | 71 | > 100 µM | 23.7 | > 100 µM | 19.9 | 51.7 µM
8 | CS(=O)(=O)Nc1ccc(Nc2c3ccccc3nc3cc(Cl)ccc23)cc1 | 0.0962 | 11 | 1.51 | 17.5 | 0.317 | 33.7 µM | 2.83 | 40.4 | 4.99 | 22.3 | 0.334 | 4.7 | 0.84 | 13.1 | 0.646 | 14 µM | 0.389 | 13.4 µM | 9.16 | 22.7 µM
9 | Oc1ccc(/C=N/Nc2nnc(N/N=C/c3ccc(O)cc3O)c3ccccc23)c(O)c1 | 0.414 | 1.76 | – | 7.19 | 0.28 | 0.783 µM and 5.49 µM | 0.5 | 0.954 | 1.36 | 15.8 | 0.496 | 2.65 | 0.348 | 2.16 | 0.432 | 0.831 µM and 5.99 µM | 0.576 | 0.848 µM and 2.29 µM | 0.674 | 0.623 µM and 2.57 µM
10 | CC(=O)Nc1ccc(C(=O)NN2C(=O)CSC2c2ccccc2)cc1 (centres undefined) | – | > 100 | – | > 100 | – | > 100 µM | – | > 100 | – | > 100 | – | > 100 | – | > 100 | – | > 100 µM | – | > 100 µM | – | > 100 µM
11 | CC(C)C12CCC3(CCC4C(C)(C(=O)O)CCCC4(C)C3C1)C(CN)C2 (centres undefined) | – | 52.3 | – | > 100 | – | 19.4 µM | – | > 100 | – | 90.4 | – | > 100 | – | 34.2 | – | > 100 µM | – | > 100 µM | – | > 100 µM
12 | Cc1cc2c(SCc3ccccc3Cl)nc(N)nc2nc1C | – | > 100 | – | > 100 | – | > 100 µM | – | > 100 | – | > 100 | – | > 100 | – | > 100 | – | > 100 µM | – | > 100 µM | – | > 100 µM
13 | Cc1ccc(S(=O)(=O)NCc2cccc([N+](=O)[O-])c2)cc1 | – | > 100 | – | > 100 | – | > 100 µM | – | > 100 | – | > 100 | – | > 100 | – | > 100 | – | > 100 µM | – | > 100 µM | – | > 100 µM
14 | OCCn1c(-c2ccncc2)c(-c2ccc(F)cc2)c2ncccc21 | > 25 | > 25 | > 25 | > 25 | > 25 | > 25 µM | > 25 | > 25 | > 25 | > 25 | 9.5 | > 25 | > 25 | > 25 | > 25 | > 25 µM | > 25 | > 25 µM | > 25 | > 25 µM
15 | Cc1c(-c2ccc(N3CCc4cccc(C(=O)Nc5nc6ccccc6s5)c4C3)nc2C(=O)O)cnn1CC12CC3CC(CC(C3)C1)C2 | 8.22 | 24.6 | 4.37 | 19.6 | < 0.01 | 10.4 µM | 3.77 | 38.4 | 11.4 | 32.4 | < 0.01 | < 0.01 | 3.23 | 14.9 | 15.2 | 29.1 µM | 10.8 | 29.4 µM | 3.1 | 20.5 µM
16 | O=C(Nc1cccc(C(F)(F)F)c1)Nc1cc(S(=O)(=O)NC2CC2)ccc1-c1ccsc1 | 3.4 | 11.6 | 2.99 | 13 | 3.25 | 18.3 µM | 8.96 | 35.8 | 5.96 | 20.2 | 1.73 | 7.45 | 3.51 | 13.4 | 5.41 | 20.3 µM | 3.26 | 15 µM | 3.15 | 13.7 µM
